Laboratory results published in ChEMBL document CHEMBL1201862, “PubChem BioAssay data set” (2004).
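Where inhibition never reached the appropriate level, the endpoint shown equals the highest concentration tested. Otherwise, values were interpolated linearly from a five-concentration, 48-hour dose response in 96-well plates. GI50 marks 50% less growth.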 Active and inactive are the calls of the source. Cut-off read from the data, not from the text of the source: active = GI50 up to about 1.1 µM and inactive = higher.

Columns and labels:
Test in all cases: NCI anticancer screen, dose series, 48 h
HOP-62 = system: HOP-62
UACC-62 = system: UACC-62
UO-31 = system: UO-31
HOP-92 = system: HOP-92
IGROV-1 = system: IGROV-1
Malme-3M = system: Malme-3M
EKVX = system: EKVX
A498 = system: A498
SF-268 = system: SF-268
OVCAR-8 = system: OVCAR-8
HT-29 = system: HT-29
MOLT-4 = system: MOLT-4
SK-MEL-2 = system: SK-MEL-2
NCI-H522 = system: NCI-H522
786-0 = system: 786-0
KM12 = system: KM12
LOX IMVI = system: LOX IMVI
ACHN = system: ACHN
UACC-257 = system: UACC-257
U-251 = system: U-251
SK-OV-3 = system: SK-OV-3
OVCAR-3 = system: OVCAR-3
HCT-116 = system: HCT-116
LXFL 529 = system: LXFL 529
RPMI-8226 = system: RPMI-8226
CCRF-CEM = system: CCRF-CEM
HL-60 = system: HL-60
SF-295 = system: SF-295
SN12C = system: SN12C
SF-539 = system: SF-539
NCI-H226 = system: NCI-H226
M19-MEL = system: M19-MEL
COLO 205 = system: COLO 205
NCI-H23 = system: NCI-H23
K562 = system: K562
SR = system: SR
DMS-114 = system: DMS-114
SK-MEL-5 = system: SK-MEL-5
SW-620 = system: SW-620
OVCAR-5 = system: OVCAR-5
HCT-15 = system: HCT-15
NCI-H460 = system: NCI-H460
SNB-75 = system: SNB-75
DMS-273 = system: DMS-273
SNB-19 = system: SNB-19
OVCAR-4 = system: OVCAR-4
SK-MEL-28 = system: SK-MEL-28
M14 = system: M14
RXF 393 = system: RXF 393
SNB-78 = system: SNB-78
TK-10 = system: TK-10
HCC 2998 = system: HCC 2998
DLD-1 = system: DLD-1
A549 = system: A549
KM-20L2 = system: KM-20L2

With `O=[N+]([O-])c1ccc2occ3c2c1CCC3` the GI50 (HOP-62) was > 100 µM (inactive), the GI50 (UACC-62) was > 100 µM (inactive) and the GI50 (UO-31) was 71.6 µM (inactive). For the same compound, the GI50 (HOP-92) was 35.2 µM (inactive), the GI50 (IGROV-1) was > 100 µM (inactive) and the GI50 (Malme-3M) was > 100 µM (inactive). The GI50 (EKVX) was > 100 µM (inactive), the GI50 (A498) was > 100 µM (inactive) and the GI50 (SF-268) was > 100 µM (inactive). The GI50 (OVCAR-8) was > 100 µM (inactive), the GI50 (HT-29) was > 100 µM (inactive) and the GI50 (MOLT-4) was > 100 µM (inactive). For the same compound, the GI50 (SK-MEL-2) was > 100 µM (inactive), the GI50 (NCI-H522) was > 100 µM (inactive) and the GI50 (786-0) was > 100 µM (inactive). The GI50 (KM12) was > 100 µM (inactive), the GI50 (LOX IMVI) was > 100 µM (inactive) and the GI50 (ACHN) was > 100 µM (inactive). The GI50 (UACC-257) was > 100 µM (inactive), the GI50 (U-251) was > 100 µM (inactive) and the GI50 (SK-OV-3) was > 100 µM (inactive). For the same compound, the GI50 (OVCAR-3) was > 100 µM (inactive), the GI50 (HCT-116) was > 100 µM (inactive) and the GI50 (LXFL 529) was > 100 µM (inactive). The GI50 (RPMI-8226) was > 100 µM (inactive), the GI50 (CCRF-CEM) was > 100 µM (inactive) and the GI50 (HL-60) was > 100 µM (inactive). The GI50 (SF-295) was > 100 µM (inactive), the GI50 (SN12C) was > 100 µM (inactive) and the GI50 (SF-539) was > 100 µM (inactive). For the same compound, the GI50 (NCI-H226) was 40 µM (inactive), the GI50 (M19-MEL) was > 100 µM (inactive) and the GI50 (COLO 205) was > 100 µM (inactive). For the same compound, the GI50 (NCI-H23) was > 100 µM (inactive), the GI50 (K562) was > 100 µM (inactive) and the GI50 (SR) was > 100 µM (inactive). For the same compound, the GI50 (DMS-114) was > 100 µM (inactive), the GI50 (SK-MEL-5) was > 100 µM (inactive) and the GI50 (SW-620) was > 100 µM (inactive). For the same compound, the GI50 (OVCAR-5) was 86.1 µM (inactive), the GI50 (HCT-15) was > 100 µM and the GI50 (NCI-H460) was > 100 µM (inactive). The GI50 (SNB-75) was 24.4 µM (inactive), the GI50 (DMS-273) was > 100 µM (inactive) and the GI50 (SNB-19) was > 100 µM (inactive). The GI50 (OVCAR-4) was > 100 µM (inactive), the GI50 (SK-MEL-28) was > 100 µM (inactive) and the GI50 (M14) was > 100 µM (inactive). The GI50 (RXF 393) was > 100 µM (inactive), the GI50 (SNB-78) was > 100 µM (inactive) and the GI50 (TK-10) was > 100 µM (inactive). The GI50 (HCC 2998) was > 100 µM (inactive), the GI50 (DLD-1) was > 100 µM (inactive) and the GI50 (A549) was > 100 µM (inactive).

`CC(=O)OCCOCn1c2ccccc2c2c3c(c4c5ccccc5n(COCCOC(C)=O)c4c21)C(=O)N(Cc1ccccc1)C3=O` was tested, and the GI50 (HOP-62) was > 100 µM (inactive), the GI50 (UACC-62) was > 100 µM (inactive) and the GI50 (UO-31) was > 100 µM (inactive). For the same compound, the GI50 (HOP-92) was 55.5 µM (inactive), the GI50 (IGROV-1) was > 100 µM (inactive) and the GI50 (Malme-3M) was > 100 µM (inactive). For the same compound, the GI50 (EKVX) was > 100 µM (inactive), the GI50 (A498) was > 100 µM (inactive) and the GI50 (SF-268) was > 100 µM (inactive). The GI50 (OVCAR-8) was > 100 µM (inactive), the GI50 (HT-29) was > 100 µM (inactive) and the GI50 (MOLT-4) was > 100 µM (inactive). The GI50 (SK-MEL-2) was > 100 µM (inactive), the GI50 (786-0) was > 100 µM (inactive) and the GI50 (LOX IMVI) was > 100 µM (inactive). For the same compound, the GI50 (ACHN) was > 100 µM (inactive), the GI50 (UACC-257) was > 100 µM (inactive) and the GI50 (U-251) was > 100 µM (inactive). For the same compound, the GI50 (SK-OV-3) was > 100 µM (inactive), the GI50 (HCT-116) was > 100 µM (inactive) and the GI50 (LXFL 529) was > 100 µM (inactive). The GI50 (RPMI-8226) was > 100 µM (inactive), the GI50 (CCRF-CEM) was > 100 µM (inactive) and the GI50 (HL-60) was > 100 µM (inactive). The GI50 (SN12C) was > 100 µM (inactive), the GI50 (SF-539) was > 100 µM (inactive) and the GI50 (NCI-H226) was > 100 µM (inactive). The GI50 (M19-MEL) was > 100 µM (inactive), the GI50 (COLO 205) was > 100 µM (inactive) and the GI50 (NCI-H23) was > 100 µM (inactive). For the same compound, the GI50 (K562) was > 100 µM (inactive), the GI50 (SK-MEL-5) was > 100 µM (inactive) and the GI50 (SW-620) was > 100 µM (inactive). For the same compound, the GI50 (OVCAR-5) was > 100 µM (inactive), the GI50 (HCT-15) was > 100 µM and the GI50 (NCI-H460) was > 100 µM (inactive). The GI50 (SNB-75) was 76.7 µM (inactive), the GI50 (DMS-273) was > 100 µM (inactive) and the GI50 (SNB-19) was > 100 µM (inactive). For the same compound, the GI50 (OVCAR-4) was > 100 µM (inactive), the GI50 (SK-MEL-28) was > 100 µM (inactive) and the GI50 (M14) was > 100 µM (inactive). For the same compound, the GI50 (KM-20L2) was > 100 µM (inactive), the GI50 (RXF 393) was > 100 µM (inactive) and the GI50 (SNB-78) was > 100 µM (inactive). For the same compound, the GI50 (TK-10) was > 100 µM (inactive), the GI50 (HCC 2998) was > 100 µM (inactive) and the GI50 (DLD-1) was > 100 µM (inactive). For the same compound, the GI50 (A549) was > 100 µM (inactive).
